Measurements published in paper PMC6367362, “MD001, a Novel Peroxisome Proliferator-activated Receptor α/γ Agonist, Improves Glucose and Lipid Metabolism” (Scientific Reports, 2019).

Columns and labels:
db/db mice [1] = assay: Oral once-daily administration to diabetic db/db mice; settings: db/db mice; for number of large fat cells (>150 μm in diameter) / number of small fat cells (<100 μm in diameter): adipose tissue H&E; for blood glucose levels: MD001 5 or 20 mg/kg, WY14643 20 mg/kg, rosiglitazone 20 mg/kg; for diameter of the glomerular capsule: 20 mg/kg once a day for 60 days
Protocol: (§4) (A) Changes in blood glucose levels was monitored in db/db mice administered once a day with vehicle, WY14643 (WY, 20 mg/kg), rosiglitazone (rosi, 20 mg/kg), or MD001 (n = 5–6 per group) as indicated. […] (D–M) The change in various blood metabolites was examined in db/db mice administered once a day with vehicle, WY14643 (WY), rosiglitazone (rosi), or MD001 (n = 5–6 per group). *, **, and ^#, vs. vehicle; ^†, vs. vehicle, MD001(5 mg/kg), and MD001(20 mg/kg). The data represent the mean ± S.D. *P < 0.05, **P < 0.01, ^#P < 0.001, and ^†P < 0.01.
(§5) Six-week-old C57BLKS/J-Lepr^db/Lepr^db or wild type C57BL/6J male mice were purchased from Orient Bio, Inc. (Seongnam, Korea) and acclimatised for one week. Mice were randomly grouped and orally administered with vehicle, WY14643 (20 mg/kg), rosiglitazone (20 mg/kg), or MD001 (5 mg/kg or 20 mg/kg) once a day for two months. […] Blood glucose levels were measured at the indicated time point using an OneTouch Ultra Blood Glucose Monitoring System (LifeScan, Inc., Milpitas, CA, USA).
(§6) Livers and blood samples were collected from mice in each group.
(§7) Tissues specimens including liver, perigonadal adipose tissue, skeletal muscle, spleen, kidney, and heart, were collected from mice in each group, fixed in 10% formalin, and embedded into paraffin. Tissue sections (5 μm) were stained with haematoxylin and eosin (H&E).

wild type C57BL/6J mice = assay: Oral once-daily administration to wild type C57BL/6J mice; assay type: in vivo, mouse; settings: wild type C57BL/6J mice
Protocol: Supplementary Figure S6. MD001 has no influence on food intake of mice. (A) Wild type C57/BL6 mice were orally administered with vehicle, rosiglitazone (20 mg/kg), or MD001 (20 mg/kg) once a day for 60 days. The change in their body weight was evaluated and presented as gain of body weight per group (n = 5 - 6 in each group). (B) The 3-day food intake in wild type C57/BL6 mice or db/db mice during the administration of the indicated drug was measured three times (n = 5 - 6 in each group). The data represent the mean ± SD.
C57/BL6 mice. (A-H) Wild type C57/BL6 mice were administered with vehicle, rosiglitazone (20 mg/kg), or MD001 (20 mg/kg) (n = 5 in each group) for 60 days, and their blood metabolites were measured. (B) Blood glucose level was examined during the administration of the […]

db/db mice [2] = settings: mouse, in vivo; for H&E staining of skeletal muscle: 20 mg/kg
Protocol: as §4, §5, §6, §7

human HA-PPARγ = target: T1, human HA-PPARγ (Homo sapiens, UniProt P37231); assay: PPRE luciferase activity assay in HEK293 cells transfected with HA-PPARγ; assay type: cell-based; parameters: transcriptional activity of PPARγ: dose or concentration left out as unconfirmed; settings: HEK293, PPRE-pk-Luc; 24 h (Supplementary Fig. S2)
T1 construct: expressed in transfected cells; host or cells: HEK293
T1 sequence (P37231 1-505): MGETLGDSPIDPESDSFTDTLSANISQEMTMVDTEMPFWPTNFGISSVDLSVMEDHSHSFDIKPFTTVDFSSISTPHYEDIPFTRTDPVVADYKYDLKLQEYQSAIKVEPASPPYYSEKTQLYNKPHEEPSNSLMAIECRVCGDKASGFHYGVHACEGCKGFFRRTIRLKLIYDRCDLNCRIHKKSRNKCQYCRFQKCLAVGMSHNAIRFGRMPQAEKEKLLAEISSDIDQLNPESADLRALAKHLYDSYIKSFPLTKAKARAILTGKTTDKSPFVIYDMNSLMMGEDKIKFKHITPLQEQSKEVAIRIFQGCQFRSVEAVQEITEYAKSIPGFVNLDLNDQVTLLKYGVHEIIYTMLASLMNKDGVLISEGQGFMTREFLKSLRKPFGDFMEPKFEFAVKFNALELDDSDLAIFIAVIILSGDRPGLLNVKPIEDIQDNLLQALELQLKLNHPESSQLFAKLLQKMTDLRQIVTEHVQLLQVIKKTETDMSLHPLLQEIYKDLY
Protocol: (§1) Figure 2 MD001 induces the expression of target genes through PPARα and PPARγ activation. HEK293 cells were transiently co-transfected with human HA-PPARα (A) and HA-PPARγ (B) expression vectors along with the reporter plasmid (PPRE-pk-Luc) or control reporter plasmid (pk-Luc) with Renilla vector for 24 h. Cells were treated with MD001 (10 μM), rosiglitazone (rosi) (10 μM) or WY14643 (WY) (10 μM) for 24 h. Luciferase activity was normalised to Renilla luciferase activity as described in the Methods section. **, vs. vehicle. (C) HepG2 cells were treated with MD001 (10 μM) for 24 h, and total RNA was isolated and synthesised into cDNA. Relative expression was quantitated using qRT-PCR. **, vs. vehicle. (D,E) HepG2 cells were transfected with control siRNA, PPARα siRNA (D), or PPARγ siRNA (E) for 48 h and treated with vehicle, WY14643 (10 μM), rosiglitazone (10 μM) or MD001 (10 μM) for 24 h. Subsequently, cells were harvested for total RNA isolation. Relative expression of target genes was quantitated using qRT-PCR. ^#, vs. control siRNA; ^‡, vs. control siRNA/vehicle; ^§, vs. control siRNA/WY; * and **, vs. control siRNA/MD001. Data represent the mean ± SD of three independent experiments. *P < 0.05, **P < 0.01, ^#P < 0.01, ^‡P < 0.01, and ^§P < 0.01.
(§2) For transient transfection, cells were transfected with plasmid DNA constructs by polyethylenimine (PEI, Polysciences, Inc., Warrington, PA, USA) according to the manufacturer’s instructions. Transcription activity assays of PPARα and PPARγ in HEK293 cells were performed by co-transfection of HA-PPARα, HA-PPARγ, and peroxisome proliferator-response element (PPRE) reporter plasmid (PPRE-pk-Luc) or control reporter plasmid (pk-Luc) with Renilla vector for 24 h. […] Luciferase activity was measured with the Dual-Luciferase Reporter Assay System (Promega, Madison, WI, USA) and quantified using GloMax (Promega, USA) according to the manufacturer’s protocol. […]
(§3) Luciferase activity was measured as described in the Methods section. […]

human HA-PPARα = target: T2, human HA-PPARα (Homo sapiens, UniProt Q07869); assay: PPRE luciferase activity assay in HEK293 cells transfected with HA-PPARα; assay type: cell-based; parameters: transcriptional activity of PPARα: dose or concentration left out as unconfirmed; settings: HEK293, PPRE-pk-Luc; 24 h (Supplementary Fig. S2)
T2 construct: expressed in transfected cells; host or cells: HEK293
T2 sequence (Q07869 1-468): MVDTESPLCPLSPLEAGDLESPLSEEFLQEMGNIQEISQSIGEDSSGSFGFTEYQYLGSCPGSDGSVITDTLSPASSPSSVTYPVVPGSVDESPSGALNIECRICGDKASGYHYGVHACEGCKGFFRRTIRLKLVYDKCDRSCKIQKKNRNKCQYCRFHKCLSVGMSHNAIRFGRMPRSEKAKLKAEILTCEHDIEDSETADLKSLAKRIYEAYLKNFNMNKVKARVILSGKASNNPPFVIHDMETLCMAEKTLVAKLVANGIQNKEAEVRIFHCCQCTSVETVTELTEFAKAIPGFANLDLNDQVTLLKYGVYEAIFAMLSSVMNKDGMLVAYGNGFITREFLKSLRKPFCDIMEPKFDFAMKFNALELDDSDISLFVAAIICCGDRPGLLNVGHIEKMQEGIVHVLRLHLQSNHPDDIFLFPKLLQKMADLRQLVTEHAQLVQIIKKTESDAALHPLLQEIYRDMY
Protocol: as §1, §2, §3

SMILES | number of large fat cells (>150 μm in diameter) (db/db mice [1]) | number of small fat cells (<100 μm in diameter) (db/db mice [1]) | blood FFA (db/db mice [1]; oral once a day) | blood TG (db/db mice [1]; oral once a day) | blood glucose levels (db/db mice [1]; oral once a day) | diameter of the glomerular capsule (db/db mice [1]) | body weight gain (wild type C57BL/6J mice; once a day for 60 days) | food ingestion (db/db mice [2]) | H&E staining of skeletal muscle (db/db mice [2]) | melting point [°C] | transcriptional activity of PPARγ (human HA-PPARγ) | transcriptional activity of PPARα (human HA-PPARα) | blood alanine aminotransferase (ALT) levels (db/db mice [1]; oral once a day) | blood aspartate aminotransferase (AST) levels (db/db mice [1]; oral once a day) | hepatic TG (db/db mice [1]; 20 mg/kg) | hepatic steatosis (H&E staining of liver) (db/db mice [1]; 20 mg/kg) | H&E staining of adipose tissue, skeletal muscle, and liver (wild type C57BL/6J mice; 20 mg/kg once a day for 60 days)
Cc1cccc(Nc2cc(Cl)nc(SCC(=O)O)n2)c1C [WY14643, reference compound] | significantly reduced | significantly increased | significantly decreased | significantly decreased | significantly decreased | significantly reduced | no induction of body weight gain | without changes in food ingestion | no differences | – | – | – | – | – | – | – | –
Cc1c(O)cc2oc(=O)c(C(=O)/C=C/c3ccccc3)c(-c3ccccc3)c2c1O [MD002] | – | – | – | – | – | – | – | – | – | 274 to 278 | failed to enhance | failed to enhance | – | – | – | – | –
CN(CCOc1ccc(CC2SC(=O)NC2=O)cc1)c1ccccn1 (stereo not drawn) [rosiglitazone, reference compound] | significantly reduced | significantly increased | significantly decreased | significantly decreased | significantly decreased | significantly reduced | – | – | no differences | – | – | – | significantly increased | significantly increased | failed to reduce | exacerbated hepatic steatosis | no differences
